In one assay the target is T1, myc-GPR139(WT) (Homo sapiens, UniProt Q6DWJ6).
T1 construct: mGluR5 signal peptide (N); expressed in transfected cells; host or cells: HEK293
T1 sequence (Q6DWJ6 2-353 limits assumed): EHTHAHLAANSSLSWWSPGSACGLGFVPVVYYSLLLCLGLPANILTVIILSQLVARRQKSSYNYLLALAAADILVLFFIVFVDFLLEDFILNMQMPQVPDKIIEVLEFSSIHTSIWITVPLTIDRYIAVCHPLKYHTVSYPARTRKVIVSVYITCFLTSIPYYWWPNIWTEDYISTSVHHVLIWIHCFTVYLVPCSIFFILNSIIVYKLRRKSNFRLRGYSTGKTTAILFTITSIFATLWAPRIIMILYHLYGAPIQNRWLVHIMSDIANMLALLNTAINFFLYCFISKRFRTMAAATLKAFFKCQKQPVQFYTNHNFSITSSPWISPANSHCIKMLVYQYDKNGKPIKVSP
In words: Fluo-4 Ca2+-assay, myc-tagged wild-type GPR139 in HEK293. Format: cell-based. The settings on record: for Emax: HEK293; for EC50: Fluo-4 Ca2+-assay. From the text: (§1) To study the influence of specific amino acids in the predicted binding pocket on receptor function, the desired mutations were introduced into an N-terminally c-myc-tagged wild type human GPR139 (NM_001002911.3) in the pEGFP-N1 vector (BD Biosciences)[32], [33]. As previously described, these plasmids carry the signal peptide of mGluR5 to promote cell surface expression followed by a c-myc epitope to enable detection of total and surface expression by ELISA, followed by an engineered MluI and NotI site for easy insertion of the receptor of interest. Furthermore, the start-codon in the GPR139 sequence was deleted to ensure c-myc-tagging. Mutagenesis was designed in Serial Cloner 2.6 (© Franck Perez [SerialBasics]) and carried out by GenScript (USA). All mutated residues are illustrated in Supplementary Fig. 1b. An untagged GPR139(WT) in pEGFP-N1 was also generated to ensure that the c-myc-tag had no influence on GPR139(WT) function.
(§2) All GPR139 mutants were transfected into HEK293 cells. The HEK293 cells were grown in Dulbecco’s modified Eagle’s medium (DMEM) (Gibco, 41965) supplemented with 10% dialyzed fetal bovine serum (Gibco, 26400, United States origin), 100 units/mL penicillin and 100 μg/mL streptomycin (Gibco, 15140). HEK293 cells were reverse transfected using Lipofectamine2000 (Invitrogen). More specifically two mixtures were made: 1) 10 ng DNA/well + 25 μL Opti-MEM/well and 2) […] Lipofectamine2000/well + 25 μL Opti-MEM/well. The two mixtures were mixed and 50 μL/well was added directly in black 96-well plates with flat clear bottoms for the Fluo-4 Ca^2+-assay (Corning, Falcon, 353219) or in white Opaque 96-well Microplate (PerkinElmer Life, 6005680) for ELISA. 100 μL containing 20,000 cells were added to each well and incubated 48 hours before assays. All plates were coated with poly-D-lysine.
(§3) Compound 1a (1a) was kindly provided by H. Lundbeck A/S, Denmark. […] Both compounds were dissolved to 20 mM in DMSO (Sigma, D2650) and subsequently diluted in a HEPES buffer (HBSS (Gibco, 14025) supplemented with 20 mM HEPES + 1 mM MgCl2 + 1 mM CaCl2, pH = 7.4) to a final concentration of 0.5% DMSO in the Fluo-4 Ca^2+-assay. The DMSO level was kept constant for all concentrations of both compounds. DMSO was confirmed not to have any activity by itself at this concentration. L-Trp (T0254) and L -Phe (P2126) were obtained from Sigma-Aldrich and dissolved in buffer.
(§4) The Ca^2+ measurements were preformed using the Fluo-4 NW Calcium Assay Kit (Invitrogen, Molecular Probes, F36206) as previously described. Briefly, the Fluo-4 dye loading solution was prepared according to the manufacturer’s instructions by dissolving it in HEPES-buffer supplemented with 2.5 mM probenecid. 50 μL dye loading solution was added to each well. Cells were incubated with the Fluo-4 dye for 60 min at 37 °C, then washed with 100 μL HEPES-buffer. 100 μL HEPES-buffer supplemented with 2.5 mM probenecid was then added to each well and incubated in 10 minutes at 37 °C before measurement. […] Intracellular calcium changes were recorded as indicated on either a NOVOstar (BMG Labtech) at 37 °C with an excitation filter of 485 nm and an emission filters 520 nm or a FlexStation 3 Benchtop Multi-Mode Microplate Reader (Molecular Devices) at 37 °C with an excitation wavelength of 485 nm and emission of 525 nm.
(§5) All pharmacological data have been analyzed by using Prism 6.0 (GraphPad Software Inc., San Diego). Fitting of concentration response curves was performed by non-linear regression log(agonist) vs. response (four parameters). Pooled data are shown with standard error of the mean (S.E.M.) and data showing one representative are shown with standard deviation (S.D.). Changes in potency (pEC50) and span of myc-GPR139(WT) in comparison to untagged GPR139(WT) was statistically analyzed with a paired t-test and significance was accepted at p < 0.05. The ELISA data were normalized to surface expression of myc-GPR139(WT) (100%). […]

A further assay addresses T2, GPR139 F109A^3×33 (Homo sapiens, UniProt Q6DWJ6, F109A).
T2 construct: mGluR5 signal peptide (N); expressed in transfected cells; host or cells: HEK293
T2 sequence (Q6DWJ6 2-353 F109A limits assumed): T1 sequence (Q6DWJ6 2-353 limits assumed) with F108A
As to the kind of experiment: Fluo-4 Ca2+-assay, GPR139 mutant F109A. In kind it is cell-based. Also noted: key to Emax ± SEM: NE: no effect (loss of activity). The settings on record: for EC50: F109A mutant; for Change of in vitro potency: F109A mutant versus WT, fold decreased.
From the text: as §1, §2, §3, §4, §5

Another assay concerns GPR139. The settings on record: cited from earlier work; for activation of GPR139, concentration range: ref Isberg et al. and Liu et al.
The mark [1] stands for this setting: WT, HEK293, three independent experiments, read-out: pEC50 ± SEM (converted).

Substitutions are numbered along the chain they refer to. Where two headings read alike, the source gives them in different places. A value given as a limit tells only on which side of the number the result lay.

Broadly, the Emax is the maximal effect, on the per cent scale that the assay sets. `N[C@@H](Cc1c[nH]c2ccccc12)C(=O)O` [L-Trp, tryptophan] showed an Emax at myc-GPR139(WT) (WT, normalized to buffer (0%) and 10 mM Trp (100%)) of 100%. The EC50 is 200 µM on myc-GPR139(WT) (setting [1]) and over 10000 µM on GPR139 F109A^3×33. On GPR139 F109A^3×33 (F109A, at 10 mM, normalized to buffer (0%) and 10 mM Trp (100%) on WT), this compound showed an Emax at 10000 µM of 60 ± 10%. Also, the “activation of GPR139, concentration range” value in the assay on GPR139 was “hundred-micromolar range”.

In the case of `COc1cc(OC)cc(C(=O)NNC(=O)Nc2cccc3ccccc23)c1` [Compound 1a], the EC50 is 0.234 µM at myc-GPR139(WT) (setting [1]); 0.67 µM on myc-GPR139(WT) (myc-tagged wild-type (WT) receptor, read-out: EC50); over 7.94 µM at GPR139 F109A^3×33. The “Change of in vitro potency” value at GPR139 F109A^3×33 is given as “Loss of function”. Also, the “Emax ± SEM” value on GPR139 F109A^3×33 (F109A, at 8 μM, normalized to buffer (0%) and 8 μM 1a (100%) on WT) is given as “NE*”. In the assay with GPR139 (ref Shi et al.), the agonist potency entry was “ten-nanomolar range”.

For the compound `N[C@@H](Cc1ccccc1)C(=O)O` [L-Phe, phenylalanine], at myc-GPR139(WT) (WT, normalized to buffer (0%) and 30 mM Phe (100%)), the Emax was found to be 100%. For the same compound, the EC50 was 372 µM on myc-GPR139(WT) (setting [1]) and over 31600 µM at GPR139 F109A^3×33. The Emax at 30000 µM at GPR139 F109A^3×33 (F109A, at 30 mM, normalized to buffer (0%) and 30 mM Phe (100%) on WT) stood at 60 ± 6%. Also, the “activation of GPR139, concentration range” value in the assay on GPR139 is “hundred-micromolar range”.

On to `C[C@@H](NC(=O)CNC(=O)c1cccc(Cl)c1)c1ccccc1` (racemic) [Compound 7c], for which the Emax at myc-GPR139(WT) was found to be 100%. Moreover, the EC50 at myc-GPR139(WT) (setting [1]) is 0.0479 µM. Moreover, on GPR139 F109A^3×33, the Emax at 100 µM stood at 60 ± 3%, the EC50 is over 100 µM and the “Change of in vitro potency” value is given as over 2000 fold decreased. Further, the agonist potency result in the assay on GPR139 (ref Dvorak et al.) is reported as “ten-nanomolar range”.
